Twelve molecules from patent publication US20070281046A1, “Method for removing organic contaminants from Chinese herb medicines” (Committee on Chinese Medicine and Pharmacy, Department of …, priority 2006, published 2007) can be followed below.

Marks after values point to notes of the source that are not given here.

The nature of series [1]: Concentration of marker components (ginsenosides) in P. quinquefolium samples after gamma irradiation (HPLC). The conditions noted are these: for concentration of marker components of P. quinquefolium (ginsenoside): mean ± SD, three repeats; for effect of gamma irradiation on concentration of marker components: 10 kGy and 15 kGy gamma irradiation, P. quinquefolium samples. The class given is physicochemical. On the procedure:
Samples of P. quinquefolium that have respectively received gamma irradiation in dosages of 0, 10, 15, and 20 kGy were analyzed to find out the concentration of marker components therein, with the samples that have not received gamma irradiation as the control group. To extract marker components from the samples for analysis, 10 g of the samples were taken and prepared in 50 ml of 70% aqueous methanol solution, and heated in a convection heater at 60° C. for 15 minutes, followed by centrifugation in order to obtain the extract solution. Subsequently, the residual of the samples were subjected to the above-mentioned procedure again, and the extracted solution from the two rounds of procedures were mixed together and filtered, followed by the addition of 70% aqueous methanol solution to bring the volume up to 100 ml; the resulted solution was then stored at −20° C. and analyzed within 3 days. Before carrying out the analysis of ingredients, an adequate amount of the resulted solution was underwent filtration through a 0.22 μm pore size membrane, and then 20 μl of the solution was injected into a high performance liquid chromatographer for analysis (HPLC, Waters model 2695) each time; the analyses were carried out in combination with UV light—Visible light sensor of Waters model 2487, and a silicon-based reverse phase C-18 column (Cosmosil 5C18-MS-II, 5 μm, 4.6×250 mm, Nacalai Tesque, Inc., Kyoto, Japan) was used for analyzing the marker components of P. quinquefolium in the solution. The marker components of P. quinquefolium tested in the experiment included ginsenoside Rb1, ginsenoside Rg1, ginsenoside Rc, ginsenoside Rd, and ginsenoside Re; the detection wavelength of UV light was 203 ηm. The solution of 15% aqueous phosphoric acid (H3PO4)—acetonitrile (CH3CN) (81:19 to 60:40) was used as the moving phase, and the moving phase was analyzed at 25° C. and 1.0 ml/min of flow velocity after being filtered with a 0.45 μm filtration membrane, so as to measure the concentration of the marker components in samples of P. quinquefolium that received various dosages of gamma irradiation.

Series [2] can be described thus: Degradation of nine organochlorine pesticides by gamma irradiation in samples of P. quinquefolium (GC analysis). The class given is physicochemical. The conditions noted are these: for remaining concentration of organochlorine pesticides in samples: P. quinquefolium samples, mean of three; for proportion of pesticide degraded: gamma irradiation of P. quinquefolium samples, dose not stated in the sentence (matches 25 kGy of Table 1). The text has this: The nine organochlorine pesticides that included Aldrin, Lindane, Heptachlor, Endosulfan-1, Endosulfan-2, o,p′-DDD), p,p′-DDD, p,p′-DDE, and p,p′-DDT were simultaneously prepared in a n-hexane solution. Subsequently, the n-hexane solution that contained the aforesaid organochlorine pesticides was evenly sprayed into samples of P. quinquefolium; the concentration of each of the nine organochlorine pesticides contained in the samples was approximately 0.5 ppm. The samples were cut into pieces with scissors, and then divided into separate packs that weighed 10 g, respectively; the packs were subjected to gamma irradiation of different dosages ranging from 0, 5, 10, 15, 20, and 25 kGy, and followed by the analysis of concentration of the aforesaid organochlorine pesticides. […] Solution was extracted from the samples by using 70% aqueous acetone, and then the extracted solution was subjected to filtration, a decrease in pressure, and condensation in order to remove acetone, followed by the addition of hydrochloric acid and n-hexane to bring the extracted solution to 100 ml, so that the organochlorine pesticides were distributed to the organic layer. Consequently, magnesium silicate was added into the resulted solution in order to depigment and purify it, and once the solution has undergone a decrease in pressure and condensation again for drying, it was brought to 5 ml by adding n-hexane solution to prepare it for gas chromatography (GC) analysis. After undergoing centrifugation, 2 μl of the resulted solution was taken for GC analysis to find out the respective concentration of each of the aforesaid organochlorine pesticides remaining in the samples after receiving various dosages of gamma irradiation.

Where [3] appears, read: 0 kGy gamma irradiation (control group).

As for `CC(C)=CCC[C@](C)(O[C@@H]1O[C@H](CO)[C@@H](O)[C@H](O)[C@H]1O)[C@H]1CC[C@]2(C)[C@@H]1[C@H](O)C[C@@H]1[C@@]3(C)CC[C@H](O)C(C)(C)[C@@H]3[C@@H](O[C@@H]3O[C@H](CO)[C@@H](O)[C@H](O)[C@H]3O[C@@H]3O[C@@H](C)[C@H](O)[C@@H](O)[C@H]3O)C[C@]12C` [Re, ginsenoside Re], the “concentration of marker components of P. quinquefolium (ginsenoside)” value in series [1] (setting [3]) is reported as 15.98 ± 0.50 mg/g; in series [1] (10 kGy gamma irradiation), 15.79 ± 0.21 mg/g; in series [1] (15 kGy gamma irradiation) it was 15.04 ± 0.33 mg/g; in series [1] (20 kGy gamma irradiation), 14.53 ± 0.14 mg/g. Besides, the “effect of gamma irradiation on concentration of marker components” value (shortened to “effect of gamma irradiation”) in series [1] is given as “would not affect”.

With `O=S1OC[C@@H]2[C@H](CO1)[C@@]1(Cl)C(Cl)=C(Cl)[C@]2(Cl)C1(Cl)Cl` (some centres unmarked) [Endosulfan-1], the “remaining concentration of organochlorine pesticides in samples” value (“remaining concentration” for short) in series [2] (setting [3]) is reported as 0.519 ppm; in series [2] (5 kGy gamma irradiation), 0.392 ppm; in series [2] (10 kGy gamma irradiation), 0.311 ppm; in series [2] (15 kGy gamma irradiation), 0.251 ppm; in series [2] (20 kGy gamma irradiation), 0.192 ppm; in series [2] (25 kGy gamma irradiation), 0.140 ppm.

As for `CC(C)=CCC[C@](C)(O[C@@H]1O[C@H](CO)[C@@H](O)[C@H](O)[C@H]1O)[C@H]1CC[C@]2(C)[C@@H]1[C@H](O)C[C@@H]1[C@@]3(C)CC[C@H](O)C(C)(C)[C@@H]3[C@@H](O[C@@H]3O[C@H](CO)[C@@H](O)[C@H](O)[C@H]3O)C[C@]12C` [Rg1, ginsenoside Rg1], the “concentration of marker components of P. quinquefolium (ginsenoside)” value turned out to be 1.56 ± 0.09 mg/g in series [1] (setting [3]), 1.56 ± 0.06 mg/g in series [1] (10 kGy gamma irradiation), 1.47 ± 0.03 mg/g in series [1] (15 kGy gamma irradiation) and 1.43 ± 0.02 mg/g in series [1] (20 kGy gamma irradiation). Moreover, the “effect of gamma irradiation” value in series [1] is given as “would not affect”.

For `ClC1=C(Cl)C2(Cl)C3C4C=CC(C4)C3C1(Cl)C2(Cl)Cl` (centres unmarked) [Aldrin], the “remaining concentration” value in series [2] (setting [3]) is recorded as 0.532^a) ppm; in series [2] (5 kGy gamma irradiation), 0.376 ppm; in series [2] (10 kGy gamma irradiation), 0.279 ppm; in series [2] (15 kGy gamma irradiation) it was 0.218 ppm; in series [2] (20 kGy gamma irradiation), 0.168 ppm; in series [2] (25 kGy gamma irradiation), 0.123 ppm.

As for `CC(C)=CCC[C@](C)(O[C@@H]1O[C@H](CO)[C@@H](O)[C@H](O)[C@H]1O)[C@H]1CC[C@]2(C)[C@@H]1[C@H](O)C[C@@H]1[C@@]3(C)CC[C@H](O[C@@H]4O[C@H](CO)[C@@H](O)[C@H](O)[C@H]4O[C@@H]4O[C@H](CO)[C@@H](O)[C@H](O)[C@H]4O)C(C)(C)[C@@H]3CC[C@]12C` [Rd, ginsenoside Rd], the “concentration of marker components of P. quinquefolium (ginsenoside)” value in series [1] (setting [3]) was 9.02 ± 0.32 mg/g; in series [1] (10 kGy gamma irradiation) it was 8.77 ± 0.15 mg/g; in series [1] (15 kGy gamma irradiation) it was 8.44 ± 0.25 mg/g; in series [1] (20 kGy gamma irradiation), 8.20 ± 0.17 mg/g. Besides, in series [1], the “effect of gamma irradiation” value is reported as “would not affect”.

With `Clc1ccc(C(c2ccc(Cl)cc2)C(Cl)Cl)cc1` [p,p′-DDD], the “remaining concentration” value is reported as 0.502 ppm in series [2] (setting [3]); 0.370 ppm in series [2] (5 kGy gamma irradiation); 0.282 ppm in series [2] (10 kGy gamma irradiation); 0.227 ppm in series [2] (15 kGy gamma irradiation); 0.179 ppm in series [2] (20 kGy gamma irradiation); 0.147 ppm in series [2] (25 kGy gamma irradiation).

Consider `Clc1ccc(C(c2ccccc2Cl)C(Cl)Cl)cc1` (centres unmarked) [o,p′-DDD], for which the “remaining concentration” value in series [2] (setting [3]) came out at 0.476 ppm; in series [2] (5 kGy gamma irradiation) it was 0.337 ppm; in series [2] (10 kGy gamma irradiation), 0.250 ppm; in series [2] (15 kGy gamma irradiation), 0.196 ppm; in series [2] (20 kGy gamma irradiation), 0.155 ppm; in series [2] (25 kGy gamma irradiation), 0.119 ppm.

With `Clc1ccc(C(c2ccc(Cl)cc2)C(Cl)(Cl)Cl)cc1` [p,p′-DDT], the “remaining concentration” value in series [2] (setting [3]) amounted to 0.520 ppm; in series [2] (5 kGy gamma irradiation), 0.344 ppm; in series [2] (10 kGy gamma irradiation), 0.242 ppm; in series [2] (15 kGy gamma irradiation), 0.178 ppm; in series [2] (20 kGy gamma irradiation), 0.127 ppm; in series [2] (25 kGy gamma irradiation), 0.082 ppm. Moreover, the “proportion of pesticide degraded” value in series [2] stood at 84%.

In the case of `ClC(Cl)=C(c1ccc(Cl)cc1)c1ccc(Cl)cc1` [p,p′-DDE], the “remaining concentration” value in series [2] (setting [3]) is on record as 0.544 ppm; in series [2] (5 kGy gamma irradiation), 0.404 ppm; in series [2] (10 kGy gamma irradiation) it was 0.313 ppm; in series [2] (15 kGy gamma irradiation), 0.249 ppm; in series [2] (20 kGy gamma irradiation), 0.195 ppm; in series [2] (25 kGy gamma irradiation), 0.145 ppm.

Consider `ClC1=C(Cl)C2(Cl)C3C(Cl)C=CC3C1(Cl)C2(Cl)Cl` (centres unmarked) [Heptachlor], for which the “remaining concentration” value came to 0.532 ppm in series [2] (setting [3]); 0.421 ppm in series [2] (5 kGy gamma irradiation); 0.319 ppm in series [2] (10 kGy gamma irradiation); 0.254 ppm in series [2] (15 kGy gamma irradiation); 0.195 ppm in series [2] (20 kGy gamma irradiation); 0.142 ppm in series [2] (25 kGy gamma irradiation).

For the molecule `Cl[C@H]1[C@H](Cl)[C@@H](Cl)[C@@H](Cl)[C@H](Cl)[C@H]1Cl` [Lindane], the “remaining concentration” value in series [2] (setting [3]) worked out at 0.549 ppm; in series [2] (5 kGy gamma irradiation), 0.383 ppm; in series [2] (10 kGy gamma irradiation) it was 0.278 ppm; in series [2] (15 kGy gamma irradiation) it was 0.206 ppm; in series [2] (20 kGy gamma irradiation) it was 0.147 ppm; in series [2] (25 kGy gamma irradiation) it was 0.089 ppm. In series [2], the “proportion of pesticide degraded” value is listed as 84%.

Turning to `O=S1OC[C@@H]2[C@H](CO1)[C@]1(Cl)C(Cl)=C(Cl)[C@]2(Cl)C1(Cl)Cl` (some centres unmarked) [Endosulfan-2], the “remaining concentration” value in series [2] (setting [3]) came to 0.515 ppm; in series [2] (5 kGy gamma irradiation), 0.359 ppm; in series [2] (10 kGy gamma irradiation) it was 0.263 ppm; in series [2] (15 kGy gamma irradiation), 0.198 ppm; in series [2] (20 kGy gamma irradiation), 0.144 ppm; in series [2] (25 kGy gamma irradiation), 0.093 ppm.
